Data published in ChEMBL document CHEMBL1811878, “Heteroatom-substituted analogues of orphan nuclear receptor small heterodimer partner ligand and apoptosis inducer (E)-4-[3-(1-Adamantyl)-4-hydroxyphenyl]-3-chlorocinnamic acid” (J Med Chem, 2011).
Values after ≈ are worked out from the molar mass of the structure shown. Active and inactive are the calls of the source. The rule behind the calls is not given here.

Legend:
Mus musculus [1] = experiment: Toxicity in ICR-SCIDS mouse harboring xenograft assessed as exhibiting symptoms of dehydration at 20 mg/kg, iv qd administered alternate days for a total of 15 doses measured on day 9; format: organism-based; design: dose 20 mg/kg, route intravenous; conditions: in vivo
KG-1 [2] = experiment: Induction of apoptosis in human KG1 cells assessed as DNA fragmentation at 5 uM after 48 hrs by acridine orange staining method; format: functional
HT-29 [3] = experiment: Induction of apoptosis in human HT-29 cells assessed as decrease in ATP level at 10 uM after 72 hrs by luminescence assay; format: functional
PC-3 [4] = experiment: Induction of apoptosis in human PC3 cells assessed as decrease in ATP level after 72 hrs by luminescence assay; format: functional, cell-based
PC-3 [5] = experiment: Induction of apoptosis in human PC3 cells assessed as decrease in ATP level at 10 uM after 72 hrs by luminescence assay; format: functional, cell-based
Mus musculus [6] = experiment: Toxicity in ICR-SCIDS mouse harboring xenograft assessed as body weight loss at 20 mg/kg, iv qd administered alternate days for a total of 15 doses measured on day 9; format: organism-based; design: dose 20 mg/kg, route intravenous; conditions: in vivo
HT-29 [7] = experiment: Induction of apoptosis in human HT-29 cells assessed as decrease in ATP level after 72 hrs by luminescence assay; format: functional, cell-based
Mus musculus [8] = experiment: Toxicity in ICR-SCIDS mouse assessed as increase in body weight at 20 mg/kg, iv qd administered at a 25% increment in dose each day for 7 days measured on day 1; format: organism-based; design: dose 20 mg/kg, route intravenous; conditions: in vivo, 168 h
KG-1 [9] = experiment: Growth inhibition in human KG1 cells expressing p53 gene at 5 uM after 48 hrs by MTT assay; format: functional; conditions: KG-1, 48 h, read-out: GI
HT-29 [10] = experiment: Induction of apoptosis in human HT-29 cells assessed as decrease in ATP level at 5 uM after 72 hrs by luminescence assay; format: functional; design: scale not given: the % may be the effect or the level left
KG-1 [11] = experiment: Growth inhibition in human KG1 cells expressing p53 gene at 1 uM after 48 hrs by MTT assay; format: functional; conditions: KG-1, 48 h, read-out: GI
A549 [12] = experiment: Induction of apoptosis in human A549 cells assessed as decrease in ATP level after 72 hrs by luminescence assay; format: functional, cell-based
Mus musculus [13] = experiment: Toxicity in ICR-SCIDS mouse harboring xenograft assessed as decreased physical activity at 20 mg/kg, iv qd administered alternate days for a total of 15 doses measured on day 9; format: organism-based; design: dose 20 mg/kg, route intravenous; conditions: in vivo
Mus musculus [14] = experiment: Toxicity in ICR-SCIDS mouse assessed as increase in body weight at 20 mg/kg, iv qd administered at a 25% increment in dose each day for 7 days measured on day 4; format: organism-based; design: dose 20 mg/kg, route intravenous; conditions: in vivo, 168 h
PC-3 [15] = experiment: Induction of apoptosis in human PC3 cells assessed as decrease in ATP level at 5 uM after 72 hrs by luminescence assay; format: functional; design: scale not given: the % may be the effect or the level left
[16] = Aqueous solubility of the compound in PBS at pH 7.2 by UV spectrophotometric analysis; format: physicochemical
Mus musculus [17] = experiment: Toxicity in ICR-SCIDS mouse assessed as decrease in body weight at 20 mg/kg, iv qd administered at a 25% increment in dose each day for 7 days measured on day 7 relative to body weight on day 1; format: organism-based; design: dose 20 mg/kg, route intravenous; scale not given: the % may be the effect or the level left; conditions: in vivo, 168 h
Mus musculus [18] = experiment: Toxicity in ICR-SCIDS mouse assessed as decrease in body weight at 20 mg/kg, iv qd administered at a 25% increment in dose each day for 7 days measured on day 8 relative to control; format: organism-based; design: dose 20 mg/kg, route intravenous; scale not given: the % may be the effect or the level left; conditions: in vivo, 168 h
Mus musculus [19] = experiment: Toxicity in ICR-SCIDS mouse harboring xenograft assessed as occurrence of scruffy coat at 20 mg/kg, iv qd administered alternate days for a total of 15 doses measured on day 9; format: organism-based; design: dose 20 mg/kg, route intravenous; conditions: in vivo
A549 [20] = experiment: Induction of apoptosis in human A549 cells assessed as decrease in ATP level at 5 uM after 72 hrs by luminescence assay; format: functional; design: scale not given: the % may be the effect or the level left
KG-1 [21] = experiment: Induction of apoptosis in human KG1 cells expressing p53 gene assessed as DNA fragmentation at 1 uM after 48 hrs by acridine orange staining method; format: functional
[22] = Induction of apoptosis in mouse MMTV-Wnt-1 cells assessed as cell viability after 72 hrs by DAPI staining based cell counting; format: functional
Mus musculus [23] = experiment: Toxicity in ICR-SCIDS mouse harboring xenograft assessed as occurrence of diarrhea at 20 mg/kg, iv qd administered alternate days for a total of 15 doses measured on day 9; format: organism-based; design: dose 20 mg/kg, route intravenous; conditions: in vivo
A549 [24] = experiment: Induction of apoptosis in human A549 cells assessed as decrease in ATP level at 10 uM after 72 hrs by luminescence assay; format: functional, cell-based
MDA-MB-231 [25] = experiment: Growth inhibition of retinoid-resistant human MDA-MB-231 cells expressing p53 and Erbeta gene at 0.1 to 1 uM after 48 hrs by MTT assay; format: functional, cell-based
MDA-MB-231 [26] = experiment: Induction of apoptosis in retinoid-resistant human MDA-MB-231 cells expressing p53 and ERbeta gene assessed as DNA fragmentation at 1 uM after 24 hrs by acridine orange staining method; format: functional
MDA-MB-231 [27] = experiment: Growth inhibition of retinoid-resistant human MDA-MB-231 cells expressing p53 and ERbeta gene at 1 uM after 24 hrs by MTT assay; format: functional; conditions: MDA-MB-231, 24 h, read-out: GI
[28] = Induction of apoptosis in retinoid-resistant p53 null human HL60R cells assessed as DNA fragmentation at 0.1 uM after 24 hrs by acridine orange staining method; format: functional
HT-29 [29] = experiment: Induction of apoptosis in human HT-29 cells assessed as decrease in ATP level at 10 uM after 72 hrs by luminescence assay relative to control; format: functional; design: scale not given: the % may be the effect or the level left
[30] = Aqueous solubility of the compound in water at pH 5 by UV spectrophotometric analysis; format: physicochemical
MDA-MB-231 [31] = experiment: Growth inhibition of retinoid-resistant human MDA-MB-231 cells expressing p53 and ERbeta gene at 1 uM after 48 hrs by MTT assay; format: functional; conditions: MDA-MB-231, 48 h, read-out: GI
MDA-MB-231 [32] = experiment: Induction of apoptosis in retinoid-resistant human MDA-MB-231 cells expressing p53 and Erbeta gene assessed as DNA fragmentation at 0.1 to 1 uM after 48 hrs by acridine orange staining method; format: functional, cell-based
[33] = Induction of apoptosis in retinoid-resistant p53 null human HL60R cells assessed as DNA fragmentation at 1 uM after 24 hrs by acridine orange staining method; format: functional
MDA-MB-231 [34] = experiment: Induction of apoptosis in retinoid-resistant human MDA-MB-231 cells expressing p53 and ERbeta gene assessed as DNA fragmentation at 1 uM after 48 hrs by acridine orange staining method; format: functional

Compound | Activity (KG-1 [2]) [%] | Activity (HT-29 [3]) | Activity (PC-3 [4]) | Activity (PC-3 [5]) | Activity (HT-29 [7]) | Activity (Mus musculus [8]) [%] | inhibition of growth at 5 µM (KG-1 [9]) [%] | Activity (HT-29 [10]) [%] | inhibition of growth at 1 µM (KG-1 [11]) [%] | Activity (A549 [12]) | Activity (Mus musculus [14]) [%] | Activity (PC-3 [15]) [%] | Activity (Mus musculus [17]) [%] | Activity (Mus musculus [18]) [%] | Activity (A549 [20]) [%] | Activity (KG-1 [21]) [%] | IC50 [22] [nM] | Activity (A549 [24]) | other results
O=C(O)/C=C/c1cnc(-c2ccc(O)c(C34CC5CC(CC(C5)C3)C4)c2)nc1 | 50 | inactive | Dose-dependent effect | Active | Dose-dependent effect | 5.7 | 100 | 15 | 100 | Dose-dependent effect | 5.7 | 35 | 100.9 | 100 | 35 | 40 | 60 | Active | Activity (Mus musculus [1]): Non-toxic; Activity (Mus musculus [6]): Non-toxic; Activity (Mus musculus [13]): Non-toxic; solubility ([16]; PBS, read-out: solubility): 0.44 µM (≈ 0.166 µg/mL); Activity (Mus musculus [19]): Non-toxic; Activity (Mus musculus [23]): Non-toxic
O=C(O)/C=C/c1ccc(-c2ccc(O)c(C34CC5CC(CC(C5)C3)C4)c2)c(Cl)c1 | 55 | >=40% | Dose-dependent effect | Active | Dose-dependent effect | 9.3 | 67 | 30 | 44 | Dose-dependent effect | 9.3 | 30 | 90.4 | 62.7 | 30 | 30 | 281 | Active | growth inhibition (GI) (MDA-MB-231 [25]): inactive; Activity (MDA-MB-231 [26]): 3%; inhibition of growth at 1 µM (MDA-MB-231 [27]): 8%; Activity [28]: 51%; Activity (HT-29 [29]): <60%; solubility [30]: 4.5 µM (≈ 1.84 µg/mL); inhibition of growth at 1 µM (MDA-MB-231 [31]): 43%; solubility ([16]; buffer): soluble; Activity (MDA-MB-231 [32]): inactive; Activity [33]: 94%; Activity (MDA-MB-231 [34]): 7%
